Experimental data: USRE49735E1 (BRISTOL-MYERS SQUIBB COMPANY, priority 2010, dated 2023)
Where “and” joins values, the source holds several entries; their conditions need not be identical. Equal entries are not always repeated.

Each molecule was assayed against human mGluR5A (Homo sapiens, UniProt P41594) (assay: mGluR5 FLIPR Assay). Settings: positive modulator activity; HEK293 (ZF) cells with human mGluR5A and rat GLAST; Ca++ response to ~EC10 glutamate.
Chain of human mGluR5A (P41594 21-1180 isoform P41594-2): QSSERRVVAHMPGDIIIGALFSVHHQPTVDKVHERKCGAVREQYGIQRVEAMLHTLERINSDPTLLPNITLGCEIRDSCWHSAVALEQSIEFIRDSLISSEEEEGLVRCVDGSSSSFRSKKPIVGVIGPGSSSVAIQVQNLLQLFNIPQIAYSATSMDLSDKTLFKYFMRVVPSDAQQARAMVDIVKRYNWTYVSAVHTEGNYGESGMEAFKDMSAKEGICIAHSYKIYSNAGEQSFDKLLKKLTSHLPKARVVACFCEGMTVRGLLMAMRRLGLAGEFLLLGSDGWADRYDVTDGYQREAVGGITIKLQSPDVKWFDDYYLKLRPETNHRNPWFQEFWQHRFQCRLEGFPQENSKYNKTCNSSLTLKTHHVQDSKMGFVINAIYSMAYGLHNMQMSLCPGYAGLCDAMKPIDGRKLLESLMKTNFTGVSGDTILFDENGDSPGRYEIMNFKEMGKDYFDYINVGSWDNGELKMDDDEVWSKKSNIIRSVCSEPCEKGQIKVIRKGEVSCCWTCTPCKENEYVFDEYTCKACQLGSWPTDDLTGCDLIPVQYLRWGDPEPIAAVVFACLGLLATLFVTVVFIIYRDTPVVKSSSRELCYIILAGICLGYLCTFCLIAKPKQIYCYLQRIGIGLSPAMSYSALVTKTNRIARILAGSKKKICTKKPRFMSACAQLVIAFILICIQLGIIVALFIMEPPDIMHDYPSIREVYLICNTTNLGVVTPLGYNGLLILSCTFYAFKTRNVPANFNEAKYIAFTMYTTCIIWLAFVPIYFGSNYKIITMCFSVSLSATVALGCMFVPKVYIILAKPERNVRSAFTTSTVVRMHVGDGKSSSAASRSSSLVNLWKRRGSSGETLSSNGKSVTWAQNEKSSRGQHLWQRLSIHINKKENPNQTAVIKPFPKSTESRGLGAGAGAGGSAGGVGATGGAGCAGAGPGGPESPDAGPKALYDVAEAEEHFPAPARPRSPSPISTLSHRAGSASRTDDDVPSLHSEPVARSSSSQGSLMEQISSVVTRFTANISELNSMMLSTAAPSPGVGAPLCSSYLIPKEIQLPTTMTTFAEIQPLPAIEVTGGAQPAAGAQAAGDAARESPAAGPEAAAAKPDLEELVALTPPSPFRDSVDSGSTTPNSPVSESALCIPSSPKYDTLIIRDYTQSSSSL
Type: cell-based
`COc1cccc([C@@H]2OC(=O)N[C@H]2c2cncc(C#Cc3ccccc3)c2)c1` (single isomer, unassigned) [Example 32] was tested, and the EC50 was > 1000 nM. `O=C1N[C@H](c2cncc(C#Cc3ccccn3)c2)[C@@H](c2ccc(F)cc2)O1` [Example 210] was tested, and the EC50 was < 100 nM. An EC50 of 100 to 1000 nM was found for `O=C1N[C@H](c2cccc(C#Cc3cncc(F)c3)c2)[C@@H](c2cccnc2)O1` [Example 237] in this work. `O=C1N[C@@H](c2cccc(C#Cc3ccccc3)c2)[C@H](c2nc(-c3ccccn3)no2)O1` [Example 163] was tested, and the EC50 was > 1000 nM. `O=C1N[C@H](c2cncc(C#Cc3cccnc3)c2)[C@@H](c2ccc(F)cc2F)O1` [Example 184] was tested, and the EC50 was < 100 nM. `N#Cc1ccc([C@H]2OC(=O)N[C@@H]2c2cncc(C#Cc3ccccc3)c2)cc1` [Example 365, 4-((4R,5R)-2-Oxo-4-(5-(phenylethynyl)pyridin-3-yl)oxazolidin-5-yl)benzonitrile] was tested, and the EC50 was < 100 nM. For `O=C1N[C@H](c2cccc(C#Cc3ccccc3)c2)[C@@H](c2cccc(F)c2)O1` (racemic) [Example 111, Trans-5-(3-fluorophenyl)-4-(3-(phenylethynyl)phenyl)oxazolidin-2-one], the EC50 was < 100 nM. With `O=C1N[C@H](c2cc(C#Cc3cccc(Cl)c3)ccn2)[C@@H](c2ccc(F)cc2)O1` (single isomer, unassigned) [Example 347] the EC50 was > 1000 nM. In the case of `O=C1N[C@H](c2cc(C#Cc3ccc(C4CC4)nc3)cnc2F)[C@@H](c2ccc(F)cc2)O1` [Example 151, (4R,5R)-4-(5-((6-Cyclopropylpyridin-3-yl)ethynyl)-2-fluoropyridin-3-yl)-5-(4-fluorophenyl)oxazolidin-2-one], the EC50 is reported as > 1000 nM. An EC50 of 100 to 1000 nM was found for `COc1cccc([C@H]2OC(=O)N[C@@H]2c2cccc(C#Cc3ccc4ccccc4n3)c2)c1` [Example 66, (4R,5R)-5-(3-Methoxyphenyl)-4-(3-(quinolin-2-ylethynyl)phenyl)oxazolidin-2-one] in this work. `O=C1N[C@H](c2cc(C#Cc3ccccn3)cnc2F)[C@@H](c2ccc(F)cc2)O1` [Example 156, (4R,5R)-4-(2-Fluoro-5-(pyridin-2-ylethynyl)pyridin-3-yl)-5-(4-fluorophenyl)oxazolidin-2-one] was tested, and the EC50 was < 100 nM. For `O=C1N[C@H](c2ccnc(C#Cc3ccccc3)c2)[C@@H](c2ccccc2)O1` [Example 20, (4R,5R)-5-Phenyl-4-(2-(phenylethynyl)pyridin-4-yl)oxazolidin-2-one], the EC50 was < 100 nM. With `O=C1N[C@@H](c2cccc(C#Cc3ccccc3)c2)[C@H](c2ccncn2)O1` [Example 238] the EC50 was > 1000 nM. `C[C@]1(c2ccc(F)cc2)OC(=O)N[C@@H]1c1cncc(C#Cc2ccccc2)c1` [Example 203] was tested, and the EC50 was < 100 nM and 2.5 nM. With `O=C1N[C@H](c2cccc(C#Cc3ccccc3F)n2)[C@@H](c2ccccc2)O1` (single isomer, unassigned) [Example 14] the EC50 was > 1000 nM. An EC50 of 100 to 1000 nM was found for `C[C@]1(c2ccc(F)cc2)OC(=O)N[C@H]1c1cncc(C#Cc2ccccc2)c1` [Example 206] in this work. With `COc1cccc([C@H]2OC(=O)N[C@H]2c2cccc(C#Cc3ccccc3)c2)c1` (single isomer, unassigned) [Example 4] the EC50 was > 30000 nM. In the case of `COc1cccc([C@H]2OC(=O)N[C@@H]2c2cccc(C#Cc3cnc4cc[nH]c4c3)c2)c1` [Example 197], the EC50 is reported as > 1000 nM. For `O=C1N[C@H](c2cncc(C#Cc3cncc(F)c3)c2)[C@@H](c2cc(F)cc(F)c2)O1` [Example 171], the EC50 was < 100 nM. `C[C@@]1(c2cncc(C#Cc3ncccc3F)c2)NC(=O)O[C@H]1c1ccc(F)cc1` (single isomer, unassigned) [Example 344] was tested, and the EC50 was < 100 nM. In the case of `O=C1N[C@@H](c2cc(C#Cc3ccc(F)cc3)ccn2)[C@H](c2ccc(F)cc2)O1` (single isomer, unassigned) [Example 358], the EC50 is reported as > 1000 nM. For `O=C1NC(c2cccc(C#Cc3ccccc3)c2)C(c2cccc(O)c2)O1` [Example 380, (4R,5R)-5-(3-Hydroxyphenyl)-4-(3-phenylethynyl)phenyl)oxazolidin-2-one], the EC50 was < 100 nM. `O=C1N[C@H](c2cncc(C#Cc3cncc(F)c3)c2)[C@@H](c2ccc(F)c(F)c2)O1` [Example 175] was tested, and the EC50 was < 100 nM. `COc1cccc([C@H]2OC(=O)N[C@@H]2c2cccc(C#Cc3ccc(F)cc3)n2)c1` [Example 7, (4R,5R)-4-(6-((4-Fluorophenyl)ethynyl)pyridin-2-yl)-5-(3-methoxyphenyl)oxazolidin-2-one] was tested, and the EC50 was > 1000 nM. In the case of `O=C1N[C@@H](c2cc(C#Cc3ccccc3)ccn2)[C@H](c2ccc(F)cc2)O1` (single isomer, unassigned) [Example 298], the EC50 is reported as 100 to 1000 nM and 232 nM. `O=C1N[C@@H](c2cccc(C#Cc3ccccc3)n2)[C@H](c2ccc(F)cc2)O1` (single isomer, unassigned) [Example 136] was tested, and the EC50 was > 1000 nM. In the case of `COc1cccc([C@H]2OC(=O)N[C@@H]2c2cccc(C#Cc3ccccc3)n2)c1` (single isomer, unassigned) [Example 5], the EC50 is reported as < 100 nM. For `Cc1ccc([C@@H]2OC(=O)N[C@H]2c2cccc(C#Cc3ccccc3)c2)cc1` (racemic) [Example 106, (±)-(phenylethynyl)phenyl)-5-p-tolyloxazolidin-2-one], the EC50 was < 100 nM. With `O=C1N[C@H](c2cccc(C#Cc3cccnc3)c2)[C@@H](c2ccncc2)O1` [Example 235] the EC50 was 100 to 1000 nM and 211 nM. In the case of `O=C1N[C@H](c2cccc(C#Cc3ccccc3)n2)[C@@H](c2cccnc2)O1` (single isomer, unassigned) [Example 367], the EC50 is reported as > 1000 nM. For `O=C1N[C@H](c2cccc(C#Cc3ccccc3)c2)[C@@H](c2cccnc2)O1` [Example 117, (4R,5R)-4-(3-(phenylethynyl)phenyl)-5-(pyridin-3-yl)oxazolidin-2-one], the EC50 was < 100 nM and 4.7 nM. For `O=C1N[C@H](c2cccc(C#Cc3ccnc(F)c3)n2)[C@@H](c2ccc(F)cc2)O1` (single isomer, unassigned) [Example 372], the EC50 was < 100 nM. With `O=C1NC(c2cccc(C#Cc3ncccc3F)n2)C(c2ccc(F)cc2)O1` (single isomer, unassigned) [Example 371] the EC50 was > 1000 nM. With `O=C1N[C@H](c2cccc(C#Cc3ccccc3)c2)[C@@H](c2ccccc2F)O1` [Example 109, (4R,5R)-5-(2-fluorophenyl)-4-(3-(phenylethynyl)phenyl)oxazolidin-2-one] the EC50 was < 100 nM. In the case of `COc1cccc([C@H]2OC(=O)N[C@@H]2c2cccc(C#Cc3cccc(C)n3)c2)c1` [Example 48, (4R,5R)-5-(3-Methoxyphenyl)-4-(3-((6-methylpyridin-2-yl)ethnyl)phenyl)oxazolidin-2-one], the EC50 is reported as > 1000 nM. `O=C1N[C@@H](c2cccc(C#Cc3cccnc3)n2)[C@H](c2ccccc2)O1` (single isomer, unassigned) [Example 27] was tested, and the EC50 was > 1000 nM. With `O=C1N[C@H](c2cc(C#Cc3ccccc3)ncc2F)[C@@H](c2ccccc2F)O1` [Example 304, (4R,5R)-4-(5-Fluoro-2-(phenylethynyl)pyridin-4-yl)-5-(2-fluorophenyl)oxazolidin-2-one] the EC50 was < 100 nM. In the case of `O=C1N[C@@H](c2ccnc(C#Cc3ccccc3)n2)[C@H](c2cccc(F)c2)O1` [Example 276], the EC50 is reported as 100 to 1000 nM and 468 nM. `O=C1N[C@H](c2cncc(C#Cc3ccccc3)c2)[C@@H](c2ccc(F)cc2F)O1` [Example 179] was tested, and the EC50 was < 100 nM. `O=C1N[C@H](c2cncc(C#Cc3ccccc3)c2)[C@@H](c2c(F)cccc2F)O1` [Example 278] was tested, and the EC50 was > 1000 nM. In the case of `C[C@]1(c2cccc(C#Cc3ccccc3)n2)NC(=O)O[C@H]1c1ccccc1F` (single isomer, unassigned) [Example 377], the EC50 is reported as > 1000 nM. With `O=C1N[C@H](c2cccc(C#Cc3ccccc3)c2)[C@@H](c2nc(-c3ccncc3)no2)O1` [Example 160] the EC50 was > 1000 nM. With `O=C1N[C@@H](c2cccc(C#Cc3ccccc3)n2)[C@H](c2cc(F)cc(F)c2)O1` (single isomer, unassigned) [Example 316] the EC50 was > 1000 nM. For `O=C1N[C@H](c2cncc(C#Cc3ccccc3)c2)[C@H](c2ccnnc2)O1` (single isomer, unassigned) [Example 324], the EC50 was < 100 nM. With `COc1cccc([C@H]2OC(=O)N[C@@H]2c2cccc(C#Cc3cccnc3C)c2)c1` [Example 87, (4R,5R)-5-(3-Methoxyphenyl)-4-(3-((2-methylpyridin-3-yl)ethynyl)phenyl)oxazolidin-2-one] the EC50 was > 1000 nM. With `O=C1N[C@@H](c2cccc(C#Cc3cccnc3)c2)[C@@H](c2cnccn2)O1` [Example 250] the EC50 was > 1000 nM. `O=C1N[C@H](c2cc(C#Cc3ccnc(C4CC4)c3)cnc2F)[C@@H](c2ccc(F)cc2)O1` [Example 152, (4R,5R)-4-(5-((2-Cyclopropylpyridin-4-yl)ethynyl)-2-fluoropyridin-3-yl)-5-(4-fluorophenyl)oxazolidin-2-one] was tested, and the EC50 was > 1000 nM. For `O=C1N[C@H](c2cccc(C#Cc3ccccc3)n2)[C@@H](c2ccc(F)cc2F)O1` (single isomer, unassigned) [Example 309], the EC50 was < 100 nM. An EC50 of 100 to 1000 nM was found for `C[C@@]1(c2cc(F)ccc2F)OC(=O)N[C@H]1c1cncc(C#Cc2ccccc2)c1` [Example 288] in this work. An EC50 of 100 to 1000 nM was found for `O=C1NC(c2cccc(C#Cc3ccccc3)c2)C(c2cccc(F)c2)O1` (stereo not shown) [Example 113] in this work. In the case of `O=C1N[C@@H](c2cncc(C#Cc3ccccc3)c2)[C@H](c2cccs2)O1` (single isomer, unassigned) [Example 345], the EC50 is reported as > 1000 nM. For `COc1cccc([C@H]2OC(=O)N[C@@H]2c2cccc(C#Cc3ccc(Cl)cc3)c2)c1` [Example 263], the EC50 was > 1000 nM. For `COc1cccc([C@H]2OC(=O)N[C@@H]2c2cccc(C#Cc3cncc(C)c3)c2)c1` [Example 86, (4R,5R)-5-(3-Methoxyphenyl)-4-(3-((5-methylpyridin-3-yl)ethynyl)phenyl)oxazolidin-2-one], the EC50 was < 100 nM. An EC50 of 100 to 1000 nM was found for `O=C1N[C@@H](c2ccc(C#Cc3ccccc3)cn2)[C@H](c2cccc(F)c2)O1` [Example 409, (4S,5S)-5-(3-Fluorophenyl)-4-(5-(phenylethynyl)pyridin-2-yl)oxazolidin-2-one] in this work. `COc1cccc([C@H]2OC(=O)N[C@@H]2c2cccc(C#Cc3cncc(C#N)c3)c2)c1` [Example 80, 5-((3-((4R,5R)-5-(3-Methoxyphenyl)-2-oxooxazolidin-4yl)-phenyl)ethynyl)nicotinonitrile] was tested, and the EC50 was < 100 nM.
